What all share (format): cell-based
For test [1], the target named is T1, pERK1/2 (Thr202/Tyr204), PANC-1 (KRAS G121D) (Homo sapiens, UniProt P01116, G12D).
T1 construct: pERK1/2 HTRF read-out
The test can be described thus: Assay of intracellular pERK1/2 (Thr202/Tyr204) phosphorylation in PANC-1 cells (KRAS G12D). The conditions noted are these: pERK1/2, 2 days, read-out: PANC-1 (KRAS G12D) IC50. In short, it runs like this:
(§1)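 Cells (10000-12000/well) exposed to 3-fold compound dilutions for 2 days at 37 °C, then lysed; pERK1/2 (Thr202/Tyr204) measured by HTRF with d2 and cryptate antibodies, 665/615 nm ratio.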

The target of test [2] is T2, pERK1/2 (Thr202/Tyr204), NCI-1H441 (KRAS G12V) (Homo sapiens, UniProt P01116, G12V).
T2 construct: pERK1/2 HTRF read-out
T2 sequence (P01116 1-188 isoform P01116-2 G12V): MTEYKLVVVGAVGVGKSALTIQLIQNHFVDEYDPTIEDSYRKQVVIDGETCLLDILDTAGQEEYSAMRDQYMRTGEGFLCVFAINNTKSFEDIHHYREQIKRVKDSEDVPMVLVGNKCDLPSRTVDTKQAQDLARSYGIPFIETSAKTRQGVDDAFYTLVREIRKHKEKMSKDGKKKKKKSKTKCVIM
The experiment in a line: Assay of intracellular pERK1/2 (Thr202/Tyr204) phosphorylation in NCI-H441 cells (KRAS G12V). The note with it: pERK1/2, 2 days, read-out: NCI-H441 (KRAS G12V) IC50. In short, it runs like this:
as §1

Test [3] addresses T3, pERK1/2 (Thr202/Tyr204), NCI-1H358 (KRAS G12C) (Homo sapiens, UniProt P01116, G12C).
T3 construct: pERK1/2 HTRF read-out
The experiment in a line: Assay of intracellular pERK1/2 (Thr202/Tyr204) phosphorylation in NCI-H358 cells (KRAS G12C). The note with it: pERK1/2, 2 days, read-out: NCI-H358 (KRAS G12C) IC50. In short, it runs like this: as §1

T1 sequence (P01116 1-188 isoform P01116-2 G12D): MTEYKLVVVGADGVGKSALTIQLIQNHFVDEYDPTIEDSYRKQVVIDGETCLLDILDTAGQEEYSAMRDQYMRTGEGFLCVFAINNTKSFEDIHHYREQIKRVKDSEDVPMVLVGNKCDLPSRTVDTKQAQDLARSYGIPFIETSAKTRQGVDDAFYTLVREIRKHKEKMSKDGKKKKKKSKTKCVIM
T3 sequence (P01116 1-188 isoform P01116-2 G12C): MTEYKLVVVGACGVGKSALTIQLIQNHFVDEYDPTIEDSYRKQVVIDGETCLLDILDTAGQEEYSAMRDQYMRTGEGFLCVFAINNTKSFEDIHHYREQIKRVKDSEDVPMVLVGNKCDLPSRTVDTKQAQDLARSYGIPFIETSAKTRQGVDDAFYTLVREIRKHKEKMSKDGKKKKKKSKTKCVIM

In general, IC50 refers to the point on the concentration scale where inhibition reaches its midpoint. `CNc1ncccc1C(C)N1CCOc2nc(-c3cc(N)c(F)c(C)c3C(F)(F)F)c(F)c3nc(OC[C@@]45CCCN4C[C@H](F)C5)nc1c23` (single isomer, unassigned) [Compound 264, 3-((R or S)-1-(5-(5-amino-4-fluoro-3-methyl-2-(trifluoromethyl)phenyl)-4-fluoro-2-(((2R,7aS)-2-fluorotetrahydro-1H-pyrrolizin-7a(5H)-yl)methoxy)-8,9-dihydro-10H-7-oxa-1,3,6,10-tetraazacyclohepta[de]naphthalen-10-yl)ethyl)-N-methylpyridin-2-amine]: the IC50 in test [1] was above 100 nM; in test [2], above 100 nM; in test [3], 93 nM.

`CNc1ncccc1C(C)N1CCOc2nc(-c3cc(N)c(F)c(C)c3C(F)(F)F)c(F)c3nc(OC[C@@]45CCCN4C[C@H](F)C5)nc1c23` (single isomer, unassigned) [Compound 265, 3-((R or S)-1-(5-(5-amino-4-fluoro-3-methyl-2-(trifluoromethyl)phenyl)-4-fluoro-2-(((2R,7aS)-2-fluorotetrahydro-1H-pyrrolizin-7a(5H)-yl)methoxy)-8,9-dihydro-10H-7-oxa-1,3,6,10-tetraazacyclohepta[de]naphthalen-10-yl)ethyl)-N-methylpyridin-2-amine]: the IC50 in test [1], in test [2] and in test [3] was above 100 nM in each case.

`Cc1cc(N)cc(-c2nc3c4c(nc(OC[C@@]56CCCN5C[C@H](F)C6)nc4c2F)N(C(C)c2cccnc2N)[C@@H](C)CO3)c1C(F)(F)F` (single isomer, unassigned) [Compound 267]: the results for the IC50 in test [1], in test [2] and in test [3] were 0.2 nM, 0.6 nM and 0.3 nM, respectively.

Take `CC(c1cccnc1N)N1c2nc(OC[C@@]34CCCN3C[C@H](F)C4)nc3c(F)c(-c4cc(N)c(F)c(Cl)c4C(F)(F)F)nc(c23)OC[C@@H]1C` (single isomer, unassigned) [Compound 269, 3-((R or S)-1-((S)-5-(5-amino-3-chloro-4-fluoro-2-(trifluoromethyl)phenyl)-4-fluoro-2-(((2R,7aS)-2-fluorotetrahydro-1H-pyrrolizin-7a(5H)-yl)methoxy)-9-methyl-8,9-dihydro-10H-7-oxa-1,3,6,10-tetraazacyclohepta[de]naphthalen-10-yl)ethyl)pyridin-2-amine]: the half-maximal inhibitory concentration (IC50) was 0.6 nM in test [1], 0.3 nM in test [2] and 0.2 nM in test [3].

For `CC(c1cccnc1N)N1c2nc(OC[C@@]34CCCN3C[C@H](F)C4)nc3c(F)c(-c4cc(N)cc(Cl)c4C(F)(F)F)nc(c23)OC[C@@H]1C` (single isomer, unassigned) [Compound 270, 3-((R or S)-1-((S)-5-(5-amino-3-chloro-2-(trifluoromethyl)phenyl)-4-fluoro-2-(((2R,7aS)-2-fluorotetrahydro-1H-pyrrolizin-7a(5H)-yl)methoxy)-9-methyl-8,9-dihydro-10H-7-oxa-1,3,6,10-tetraazacyclohepta[de]naphthalen-10-yl)ethyl)pyridin-2-amine], the IC50 was determined as 0.3 nM in test [1], 0.7 nM in test [2] and 0.3 nM in test [3].

For `CC(c1cccnc1N)N1c2nc(OC[C@@]34CCCN3C[C@H](F)C4)nc3c(F)c(-c4cc(N)cc(Cl)c4C(F)(F)F)nc(c23)OC[C@@H]1C` (single isomer, unassigned) [Compound 271, 3-((R or S)-1-((S)-5-(5-amino-3-chloro-2-(trifluoromethyl)phenyl)-4-fluoro-2-(((2R,7aS)-2-fluorotetrahydro-1H-pyrrolizin-7a(5H)-yl)methoxy)-9-methyl-8,9-dihydro-10H-7-oxa-1,3,6,10-tetraazacyclohepta[de]naphthalen-10-yl)ethyl)pyridin-2-amine], the IC50 is above 100 nM in test [1], above 100 nM in test [2] and 66 nM in test [3].

On to `CC(c1cccnc1N)N1c2nc(OC[C@@]34CCCN3C[C@H](F)C4)nc3c(F)c(-c4cc(N)c(F)c(Cl)c4C(F)(F)F)nc(c23)OC[C@@H]1C` (single isomer, unassigned) [Compound 272, 3-((R or S)-1-((S)-5-(5-amino-3-chloro-4-fluoro-2-(trifluoromethyl)phenyl)-4-fluoro-2-(((2R,7aS)-2-fluorotetrahydro-1H-pyrrolizin-7a(5H)-yl)methoxy)-9-methyl-8,9-dihydro-10H-7-oxa-1,3,6,10-tetraazacyclohepta[de]naphthalen-10-yl)ethyl)pyridin-2-amine], for which the half-maximal inhibitory concentration (IC50) in test [1] was above 100 nM; in test [2], above 100 nM; in test [3] it was 57 nM.

In the case of `C#Cc1c(F)ccc2cc(O)cc(-c3nc4c5c(nc(OC[C@@]67CCCN6C[C@H](F)C7)nc5c3F)N(C(C)c3cccnc3N)[C@@H](C)CO4)c12` (single isomer, unassigned) [Compound 273, 4-((S)-10-((R or S)-1-(2-aminopyridin-3-yl)ethyl)-4-fluoro-2-(((2R,7aS)-2-fluorotetrahydro-1H-pyrrolizin-7a(5H)-yl)methoxy)-9-methyl-9,10-dihydro-8H-7-oxa-1,3,6,10-tetraazacyclohepta[de]naphthalen-5-yl)-5-ethynyl-6-fluoronaphthalen-2-ol], the values for the IC50 in test [1], in test [2] and in test [3] were 0.4 nM, 1 nM and 0.5 nM, respectively.

As for `C#Cc1c(F)ccc2cc(O)cc(-c3nc4c5c(nc(OC[C@@]67CCCN6C[C@H](F)C7)nc5c3F)N(C(C)c3cccnc3N)[C@@H](C)CO4)c12` (single isomer, unassigned) [Compound 274, 4-((S)-10-((R or S)-1-(2-aminopyridin-3-yl)ethyl)-4-fluoro-2-(((2R,7aS)-2-fluorotetrahydro-1H-pyrrolizin-7a(5H)-yl)methoxy)-9-methyl-9,10-dihydro-8H-7-oxa-1,3,6,10-tetraazacyclohepta[de]naphthalen-5-yl)-5-ethynyl-6-fluoronaphthalen-2-ol], the figures for the IC50 in test [1], in test [2] and in test [3] were 13 nM, 8 nM and 5 nM, respectively.

Consider `CC(c1cccnc1N)N1c2nc(OC[C@@]34CCCN3C[C@H](F)C4)nc3c(F)c(-c4cc(O)cc5ccc(F)c(F)c45)nc(c23)OC[C@@H]1C` (single isomer, unassigned) [Compound 275, 4-((S)-10-((R or S)-1-(2-aminopyridin-3-yl)ethyl)-4-fluoro-2-(((2R,7aS)-2-fluorotetrahydro-1H-pyrrolizin-7a(5H)-yl)methoxy)-9-methyl-9,10-dihydro-8H-7-oxa-1,3,6,10-tetraazacyclohepta[de]naphthalen-5-yl)-5,6-difluoronaphthalen-2-ol], for which the results for the IC50 in test [1], in test [2] and in test [3] were 0.4 nM, 0.8 nM and 0.4 nM, respectively.

Take `CC(c1cccnc1N)N1c2nc(OC[C@@]34CCCN3C[C@H](F)C4)nc3c(F)c(-c4cc(O)cc5ccc(F)c(F)c45)nc(c23)OC[C@@H]1C` (single isomer, unassigned) [Compound 276, 4-((S)-10-((R or S)-1-(2-aminopyridin-3-yl)ethyl)-4-fluoro-2-(((2R,7aS)-2-fluorotetrahydro-1H-pyrrolizin-7a(5H)-yl)methoxy)-9-methyl-9,10-dihydro-8H-7-oxa-1,3,6,10-tetraazacyclohepta[de]naphthalen-5-yl)-5,6-difluoronaphthalen-2-ol]: the IC50 in test [1] is above 100 nM; in test [2] it was above 100 nM; in test [3], 77 nM.

As to `Cc1c(F)c(N)cc(-c2nc3c4c(nc(OC[C@@H]5C[C@@H](F)CN5C)nc4c2F)N(C(C)c2cccnc2N)[C@@H](C)CO3)c1C(F)(F)F` (single isomer, unassigned) [Compound 277, 3-((R or S)-1-((S)-5-(5-amino-4-fluoro-3-methyl-2-(trifluoromethyl)phenyl)-4-fluoro-2-(((2S,4R)-4-fluoro-1-methylpyrrolidin-2-yl)methoxy)-9-methyl-8,9-dihydro-10H-7-oxa-1,3,6,10-tetraazacyclohepta[de]naphthalen-10-yl)ethyl)pyridin-2-amine], the IC50 is above 100 nM in test [1], above 100 nM in test [2] and 93 nM in test [3].

Turning to `Cc1c(F)c(N)cc(-c2nc3c4c(nc(OC[C@@H]5C[C@@H](F)CN5C)nc4c2F)N(C(C)c2cccnc2N)[C@@H](C)CO3)c1C(F)(F)F` (single isomer, unassigned) [Compound 278, 3-((R or S)-1-((S)-5-(5-amino-4-fluoro-3-methyl-2-(trifluoromethyl)phenyl)-4-fluoro-2-(((2S,4R)-4-fluoro-1-methylpyrrolidin-2-yl)methoxy)-9-methyl-8,9-dihydro-10H-7-oxa-1,3,6,10-tetraazacyclohepta[de]naphthalen-10-yl)ethyl)pyridin-2-amine], the figures for the half-inhibitory concentration (IC50) in test [1], in test [2] and in test [3] were 2 nM, 0.6 nM and 0.2 nM, respectively.

As to `CCc1c(F)ccc2cc(O)cc(-c3nc4c5c(nc(OC[C@@]67CCCN6C[C@H](F)C7)nc5c3F)N(C(C)c3cccnc3N)[C@@H](C)CO4)c12` (single isomer, unassigned) [Compound 279, 4-((S)-10-((R or S)-1-(2-aminopyridin-3-yl)ethyl)-4-fluoro-2-(((2R,7aS)-2-fluorotetrahydro-1H-pyrrolizin-7a(5H)-yl)methoxy)-9-methyl-9,10-dihydro-8H-7-oxa-1,3,6,10-tetraazacyclohepta[de]naphthalen-5-yl)-5-ethyl-6-fluoronaphthalen-2-ol], the figures for the IC50 in test [1], in test [2] and in test [3] were 0.2 nM, 0.4 nM and 0.3 nM, respectively.
